Source: patent publication US9527885B2, “Hepatitis C virus inhibitors” (BRISTOL-MYERS SQUIBB COMPANY, priority 2011, dated 2016)

Tests used:
[1] = test system: HCV genotype 1a (H77 strain) replicon in HUH-7 cells; test: HCV replicon luciferase reporter assay, genotype 1a; type: cell-based; conditions: Hepatitis C virus, Huh-7, 72 h, HCV genotype 1a replicon luciferase, 3 days incubation, range class, read-out: LE_1a (EC50, range)
How it was run: (§1)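 Twenty-point, threefold compound titrations (0.5% DMSO) were incubated 3 days at 37 °C with 3.0×10^3 HUH-7 cells/well in 4% FCS. The cells stably carried luciferase replicons: genotype 1b Con1 (S1179I) or 1a H77 (NS3 P1496L, NS5A S2204I). Renilla signal was read after 2 h with 7.5 μM EnduRen, and EC50 was taken from a four-parameter logistic fit. Cytotoxicity (CC50) was measured by Cell Titer-Blue, 8 h.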

[2] = test system: HCV genotype 1b (Con1) replicon in HUH-7 cells; test: HCV replicon luciferase reporter assay, genotype 1b; type: cell-based; conditions: Hepatitis C virus, 72 h, HCV genotype 1b replicon luciferase, 3 days incubation, range class, read-out: LE_1b (EC50, range)
How it was run: as §1

Molecule COc1ccc2c(O[C@@H]3C[C@H]4C(=O)N[C@]5(C(=O)NS(=O)(=O)C6CC6)C[C@H]5/C=C\CC[C@@H](C)C[C@@H](C)[C@H](NC(=O)O[C@@H]5C[C@@H]6C[C@@H]6C5)C(=O)N4C3)nc(-c3ccc(OC(C)C)cn3)cc2c1 [Compound 5209, (1R,3r,5S)-bicyclo[3.1.0]hexan-3-yl ((2R,6S,7R,9R,13aS,14aR,16aS,Z)-14a-((cyclopropylsulfonyl)carbamoyl)-2-((3-(5-isopropoxypyridin-2-yl)-6-methoxyisoquinolin-1-yl)oxy)-7,9-dimethyl-5,16-dioxo-1,2,3,5,6,7,8,9,10,11,13a,14,14a,15,16,16a-hexadecahydrocyclopropa[e]pyrrolo[1,2-a][1,4]diazacyclopentadecin-6-yl)carbamate] has an EC50 [1] of less than 5.46 nM and an EC50 [2] of less than 5.46 nM.

Molecule COc1ccc2c(O[C@@H]3C[C@H]4C(=O)N[C@]5(C(=O)NS(=O)(=O)C6CC6)C[C@H]5/C=C\CC[C@H](C)C[C@@H](C)[C@H](NC(=O)O[C@@H]5C[C@@H]6C[C@@H]6C5)C(=O)N4C3)nc(-c3ccc(OC(C)C)nc3)cc2c1 [Compound 5218, (1R,3r,5S)-bicyclo[3.1.0]hexan-3-yl ((2R,6S,7R,9S,13aS,14aR,16aS,Z)-14a-((cyclopropylsulfonyl)carbamoyl)-2-((3-(6-isopropoxypyridin-3-yl)-6-methoxyisoquinolin-1-yl)oxy)-7,9-dimethyl-5,16-dioxo-1,2,3,5,6,7,8,9,10,11,13a,14,14a,15,16,16a-hexadecahydrocyclopropa[e]pyrrolo[1,2-a][1,4]diazacyclopentadecin-6-yl)carbamate] has an EC50 [1] of less than 5.46 nM and an EC50 [2] of less than 5.46 nM.

For COc1ccc2c(O[C@@H]3C[C@H]4C(=O)N[C@]5(C(=O)NS(=O)(=O)C6CC6)C[C@H]5/C=C\CC[C@@H](C)C[C@@H](C)[C@H](NC(=O)O[C@@H]5C[C@@H]6C[C@@H]6C5)C(=O)N4C3)nc(-c3ccc(OC(C)C)nc3)cc2c1 [Compound 5219, (1R,3r,5S)-bicyclo[3.1.0]hexan-3-yl ((2R,6S,7R,9R,13aS,14aR,16aS,Z)-14a-((cyclopropylsulfonyl)carbamoyl)-2-((3-(6-isopropoxypyridin-3-yl)-6-methoxyisoquinolin-1-yl)oxy)-7,9-dimethyl-5,16-dioxo-1,2,3,5,6,7,8,9,10,11,13a,14,14a,15,16,16a-hexadecahydrocyclopropa[e]pyrrolo[1,2-a][1,4]diazacyclopentadecin-6-yl)carbamate], the EC50 [1] was less than 5.46 nM and the EC50 [2] was less than 5.46 nM.

With COc1ccc2c(O[C@@H]3C[C@H]4C(=O)N[C@]5(C(=O)NS(=O)(=O)C6(C)CC6)C[C@H]5/C=C\CC[C@H](C)C[C@@H](C)[C@H](NC(=O)O[C@@H]5C[C@@H]6C[C@@H]6C5)C(=O)N4C3)nc(-c3ccc(OC(C)C)nc3)cc2c1 [Compound 5228, (1R,3r,5S)-bicyclo[3.1.0]hexan-3-yl ((2R,6S,7R,9S,13aS,14aR,16aS,Z)-2-((3-(6-isopropoxypyridin-3-yl)-6-methoxyisoquinolin-1-yl)oxy)-7,9-dimethyl-14a-(((1-methylcyclopropyl)sulfonyl)carbamoyl)-5,16-dioxo-1,2,3,5,6,7,8,9,10,11,13a,14,14a,15,16,16a-hexadecahydrocyclopropa[e]pyrrolo[1,2-a][1,4]diazacyclopentadecin-6-yl)carbamate] the EC50 [1] was 4.82 to 103 nM and the EC50 [2] was less than 5.46 nM.

COc1ccc2c(O[C@@H]3C[C@H]4C(=O)N[C@]5(C(=O)NS(=O)(=O)C6(C)CC6)C[C@H]5/C=C\CC[C@@H](C)C[C@@H](C)[C@H](NC(=O)O[C@@H]5C[C@@H]6C[C@@H]6C5)C(=O)N4C3)nc(-c3ccc(OC(C)C)nc3)cc2c1 [Compound 5229, (1R,3r,5S)-bicyclo[3.1.0]hexan-3-yl ((2R,6S,7R,9R,13aS,14aR,16aS,Z)-2-((3-(6-isopropoxypyridin-3-yl)-6-methoxyisoquinolin-1-yl)oxy)-7,9-dimethyl-14a-(((1-methylcyclopropyl)sulfonyl)carbamoyl)-5,16-dioxo-1,2,3,5,6,7,8,9,10,11,13a,14,14a,15,16,16a-hexadecahydrocyclopropa[e]pyrrolo[1,2-a][1,4]diazacyclopentadecin-6-yl)carbamate] gave an EC50 [1] of less than 5.46 nM and an EC50 [2] of less than 5.46 nM.

C[C@H]1CC/C=C\[C@@H]2C[C@@]2(C(=O)NS(=O)(=O)C2CC2)NC(=O)[C@@H]2C[C@@H](Oc3nccc4c5c(ccc34)OC(F)(F)O5)CN2C(=O)[C@@H](NC(=O)O[C@@H]2C[C@@H]3C[C@@H]3C2)[C@H](C)C1 [Compound 5273, (1R,3r,5S)-bicyclo[3.1.0]hexan-3-yl ((2R,6S,7R,9S,13aS,14aR,16aS,Z)-14a-((cyclopropylsulfonyl)carbamoyl)-2-((2,2-difluoro-[1,3]dioxolo[4,5-f]isoquinolin-6-yl)oxy)-7,9-dimethyl-5,16-dioxo-1,2,3,5,6,7,8,9,10,11,13a,14,14a,15,16,16a-hexadecahydrocyclopropa[e]pyrrolo[1,2-a][1,4]diazacyclopentadecin-6-yl)carbamate] showed an EC50 [1] of 4.82 to 103 nM and an EC50 [2] of 4.82 to 103 nM.

In the case of C[C@@H]1CC/C=C\[C@@H]2C[C@@]2(C(=O)NS(=O)(=O)C2CC2)NC(=O)[C@@H]2C[C@@H](Oc3nccc4c5c(ccc34)OC(F)(F)O5)CN2C(=O)[C@@H](NC(=O)O[C@@H]2C[C@@H]3C[C@@H]3C2)[C@H](C)C1 [Compound 5274, (1R,3r,5S)-bicyclo[3.1.0]hexan-3-yl ((2R,6S,7R,9R,13aS,14aR,16aS,Z)-14a-((cyclopropylsulfonyl)carbamoyl)-2-((2,2-difluoro-[1,3]dioxolo[4,5-f]isoquinolin-6-yl)oxy)-7,9-dimethyl-5,16-dioxo-1,2,3,5,6,7,8,9,10,11,13a,14,14a,15,16,16a-hexadecahydrocyclopropa[e]pyrrolo[1,2-a][1,4]diazacyclopentadecin-6-yl)carbamate], the EC50 [1] is reported as less than 5.46 nM and the EC50 [2] is reported as less than 5.46 nM.

Molecule C[C@@H]1CC/C=C\[C@@H]2C[C@@]2(C(=O)NS(=O)(=O)C2(CF)CC2)NC(=O)[C@@H]2C[C@@H](Oc3nccc4c5c(ccc34)OCCO5)CN2C(=O)[C@@H](NC(=O)OC(C)(C)C)[C@H](C)C1 [Compound 5321, tert-butyl ((2R,6S,7R,9R,13aS,14aR,16aS,Z)-2-((2,3-dihydro-[1,4]dioxino[2,3-f]isoquinolin-7-yl)oxy)-14a-(((1-(fluoromethyl)cyclopropyl)sulfonyl)carbamoyl)-7,9-dimethyl-5,16-dioxo-1,2,3,5,6,7,8,9,10,11,13a,14,14a,15,16,16a-hexadecahydrocyclopropa[e]pyrrolo[1,2-a][1,4]diazacyclopentadecin-6-yl)carbamate] has an EC50 [1] of less than 5.46 nM and an EC50 [2] of less than 5.46 nM.

With CC[C@@H]1C[C@H](C)CC/C=C\[C@@H]2C[C@@]2(C(=O)NS(=O)(=O)C2(CF)CC2)NC(=O)[C@@H]2C[C@@H](Oc3nccc4c5c(ccc34)N(C)CCO5)CN2C(=O)[C@H]1NC(=O)OC(C)(C)C(C)(F)F [Compound 5324, 3,3-difluoro-2-methylbutan-2-yl ((2R,6S,7R,9R,13aS,14aR,16aS,Z)-7-ethyl-14a-(((1-(fluoromethyl)cyclopropyl)sulfonyl)carbamoyl)-9-methyl-2-((4-methyl-3,4-dihydro-2H-[1,4]oxazino[2,3-f]isoquinolin-7-yl)oxy)-5,16-dioxo-1,2,3,5,6,7,8,9,10,11,13a,14,14a,15,16,16a-hexadecahydrocyclopropa[e]pyrrolo[1,2-a][1,4]diazacyclopentadecin-6-yl)carbamate] the EC50 [1] was less than 5.46 nM and the EC50 [2] was less than 5.46 nM.

In the case of CC[C@@H]1C[C@H](C)CC/C=C\[C@@H]2C[C@@]2(C(=O)NS(=O)(=O)C2(C)CC2)NC(=O)[C@@H]2C[C@@H](Oc3nc4c(c5ccccc35)OCCC4)CN2C(=O)[C@H]1NC(=O)OC(C)(C)C(F)(F)F [Compound 6028, 1,1,1-trifluoro-2-methylpropan-2-yl ((2R,6S,7R,9R,13aS,14aR,16aS,Z)-2-((3,4-dihydro-2H-pyrano[3,2-c]isoquinolin-6-yl)oxy)-7-ethyl-9-methyl-14a-(((1-methylcyclopropyl)sulfonyl)carbamoyl)-5,16-dioxo-1,2,3,5,6,7,8,9,10,11,13a,14,14a,15,16,16a-hexadecahydrocyclopropa[e]pyrrolo[1,2-a][1,4]diazacyclopentadecin-6-yl)carbamate], the EC50 [1] is reported as less than 5.46 nM and the EC50 [2] is reported as less than 5.46 nM.

With C[C@@H]1CC/C=C\[C@@H]2C[C@@]2(C(=O)NS(=O)(=O)C2(CF)CC2)NC(=O)[C@@H]2C[C@@H](Oc3nc4c(c5ccccc35)OCCC4)CN2C(=O)[C@@H](NC(=O)OC(C)(C)C(C)(F)F)[C@H](C)C1 [Compound 6032, 3,3-difluoro-2-methylbutan-2-yl ((2R,6S,7R,9R,13aS,14aR,16aS,Z)-2-((3,4-dihydro-2H-pyrano[3,2-c]isoquinolin-6-yl)oxy)-14a-(((1-(fluoromethyl)cyclopropyl)sulfonyl)carbamoyl)-7,9-dimethyl-5,16-dioxo-1,2,3,5,6,7,8,9,10,11,13a,14,14a,15,16,16a-hexadecahydrocyclopropa[e]pyrrolo[1,2-a][1,4]diazacyclopentadecin-6-yl)carbamate] the EC50 [1] was less than 5.46 nM and the EC50 [2] was less than 5.46 nM.
